Entries after “also recorded” stand apart in the source; their conditions may differ. Positions of bridges follow the written chain, without caps; N, C: chain ends. Residues, ends and D or L forms follow the SMILES beside them. No end group written: not given here. *: point of attachment. Biotin = O=C1N[C@H]2[C@H](CS[C@H]2CCCCC(=O)*)N1

Data set [1] is described as follows: Uptake of peptide into brain, liver and kidney after tail vein injection. Particulars: mouse, i.v. tail vein, 100 μL of 1 mg/mL; percentage relative to peptide in serum; SD, n=4.
Experimental: (§1) Peptides were injected in sterile Tris-buffered saline, pH 7.4, with 1 mM CaCl2 and 1 mM MgCl2. 4 animals were injected for each condition. Animals were then sacrificed after one minute or two minutes. Immediately upon sacrifice, blood and organs were harvested. To quantitate peptide uptake, brain, liver, and kidney were washed and the tissues lysed by homogenization in doubly distilled water. Organs and blood were centrifuged at 13000 g to collect lysate. Organ lysates or serum were then immobilized on ELISA plates that had been coated with nitrocellulose. Some tissue and serum samples were spiked with known amounts of purified peptide to verify levels of peptide immobilization in different sample types. […] The levels of biotinylated peptide immobilized on ELISA plates was quantitated by binding of alkaline phosphatase-conjugated streptavidin. Levels of streptavidin binding were determined by development with para-nitrophenylphosphate, as in Kang et al. (Neurobiology of Disease 14:146-156 (2003)).
The conditions of data set [2]: mouse, in vivo, iv.
Experimental: as §1
The target of data set [3] is T1, amyloid form of Aβ1-40 peptide (Homo sapiens, UniProt P05067, R676K/Y681T).
T1 construct: purchased Bachem (Torrence, Calif.)
The data set is described as follows: Staining of Aβ1-40 amyloid by phage clones. Format: binding. The settings on record: 10^11 PFU/ml phage; anti-M13 antibody/alkaline phosphatase detection. As for the experimental part: Staining and blotting with phage: 10^11 PFU (plaque forming units)/ml of various phage clones were incubated with the amyloid form of Aβ1-40 peptide. Aβ amyloid was made by incubating peptide in TBS (pH 7.4) for 7 days on Falcon 24-well tissue culture wells. After washing, bound phage were visualized by incubation with biotinylated anti-M13 antibody and alkaline phosphatase-conjugated streptavidin, followed by incubation for equivalent times in 5-bromo-4-chloro-3-indolyl phosphate (BCIP) and nitroblue tetrazolium (NBT).

In another data set the target is T2, Aβ1-40 amyloid (Homo sapiens, UniProt P05067, R676K/Y681T).
T2 construct: purchased Bachem (Torrence, Calif.)
The format is binding. Particulars: immobilized Aβ1-40 amyloid, ELISA.

Data set [4] deals with amyloid plaques in Alzheimer's disease brain. The data set is described as follows: Staining of human brain sections (AD and normal) with Thio-Aβ, Thio and synthetic peptide. The format is binding. Here is the method: Staining of human brain with recombinant Thio-Aβ-protein and synthetic peptides: Normal and AD brain samples were obtained from the UCSD Alzheimer's Research Center (La Jolla, Calif.). Sections from a non-AD amyloidosis patient were obtained from the Department of Pathology (UCSD). Paraffin-embedded samples of cortex or other tissues were sectioned at 10 μm and mounted on glass slides. […] Binding was determined by subsequent staining with anti-Thio antibody and anti-mouse IgG coupled to alkaline phosphatase as above. After washing, staining was developed using 5-bromo-4-chloro-3-indolyl-phosphate and nitroblue tetrazolium for identical periods of time. All washes and incubations were done in phage buffer. The existence of amyloid plaques was confirmed by binding of anti-Aβ monoclonal antibody (2066) to sections from the same brain samples. No significant staining was ever observed with secondary antibody alone. Background staining was allowed to develop to the point where cells in the section were evident.
For staining with synthetic peptide, tissue sections from AD and non-AD brain, as well as from brain, kidney, small bowel, large bowel, and prostate from a non-AD patient with amyloidosis, were cut and prepared as above. Biotinylated peptide ([…]) (SEQ ID NO:4) was added in phage buffer for 1 hour at concentrations ranging from 0.1-10 μM. Sections were washed with phage buffer, incubated with streptavidin coupled to alkaline phosphatase, washed and developed as above. […] Congo Red or hematoxylin and eosin staining was done to confirm the presence of amyloid in amyloidosis sections.

For the molecule `CC(C)C[C@@H]1NC(=O)[C@H](CCCNC(=N)N)NC(=O)[C@H](Cc2c[nH]c3ccccc23)NC(=O)[C@H](CCCNC(=N)N)NC(=O)CNC(=O)CNC(=O)[C@H](CCCCN)NC(=O)CNC(=O)[C@H](Cc2c[nH]c3ccccc23)NC(=O)[C@H](CC(=O)O)NC(=O)[C@@H](NC(=O)[C@H](CCC(=O)O)NC(=O)[C@H](C)NC(=O)CCCC[C@@H]2SC[C@@H]3NC(=O)N[C@@H]32)CSSC[C@@H](C(=O)NCC(=O)N2CCC[C@H]2C(=O)O)NC(=O)[C@H](C)NC(=O)[C@H](CCC(=O)O)NC(=O)[C@H]([C@@H](C)O)NC(=O)[C@H](CCCCN)NC(=O)CNC(=O)[C@H](CO)NC(=O)[C@H](C)NC(=O)CNC(=O)[C@@H]2CCCN2C(=O)[C@H](Cc2c[nH]c3ccccc23)NC1=O` (Biotin-AECDWGKGGRWRLWPGASGKTEACGP-OH; disulfide 3-24 (inferred); C-terminus assumed), in data set [1], the “% uptake/min, Kidney” value was 0.16 ± 0.02% uptake/min.

Turning to `CC(C)C[C@H](NC(=O)[C@H](CCCNC(=N)N)NC(=O)[C@H](Cc1c[nH]c2ccccc12)NC(=O)[C@H](CCCNC(=N)N)NC(=O)CNC(=O)CNC(=O)[C@H](CCCCN)NC(=O)CNC(=O)[C@H](Cc1c[nH]c2ccccc12)NC(=O)[C@H](CC(=O)O)NC(=O)CCCC[C@@H]1SC[C@@H]2NC(=O)N[C@@H]21)C(=O)N[C@@H](Cc1c[nH]c2ccccc12)C(=O)N1CCC[C@H]1C(=O)NCC(=O)N[C@@H](C)C(=O)N[C@@H](CO)C(=O)NCC(=O)N[C@@H](CCCCN)C(=O)N[C@H](C(=O)N[C@@H](CCC(=O)O)C(=O)N[C@@H](C)C(=O)O)[C@@H](C)O` (Biotin-DWGKGGRWRLWPGASGKTEA-OH), the “crossing of the blood-brain barrier (in words)” value in data set [2] is “did not cross the blood-brain barrier”.

For the molecule DWGKGGRWRLWPGASGKTEA, the “staining of Aβ1-40 amyloid by phage clone” value in data set [3] was “identified both small and large (0.5-50 μm) accumulations of Aβ1-40 amyloid; also recorded: stained Aβ1-40 amyloid”.

With PGRSPFTGKKLFNQEFSQDQ, the “staining of Aβ1-40 amyloid by phage clone” value in data set [3] is listed as “stained Aβ1-40 amyloid aggregates more poorly, but still stained well above background levels; also recorded: stained Aβ1-40 amyloid less well”.

For “Thio-Aβ: Recombinant fusion protein of thioredoxin with the cysteine-flanked DWGKGGRWRLWPGASGKTEA (SEQ ID NO:2) peptide (PAECDWGKGGRWRLWPGASGKTEACGPPY; cysteine pairing not given here; also: recombinant fusion with thioredoxin, carrier left off)”, the “concentration at which binding to Aβ1-40 amyloid is saturating” value in the data set with Aβ1-40 amyloid was determined as 200 nM. Also, in data set [4] (AD brain sections), the “lowest concentration giving positive staining of amyloid plaques” value was 100 nM and the “staining of neurofibrillary tangles” value was “not evident”. Further, the “staining of amyloid plaques in AD brain” value in data set [4] (paraffin sections of AD brain) is given as “heavily stained amyloid plaques from AD brains; also recorded: bound specifically to amyloid plaques in AD brains; also recorded: confirmed in brains from multiple AD subjects”. Besides, in data set [4] (paraffin sections of normal (non-AD) brain), the “staining of normal brain” value is listed as “did not stain any structures in normal brain tissue; also recorded: did not bind to normal brain samples; also recorded: negative in multiple non-AD controls”.

The values are drawn from patent US7745569B2, “Amyloid specific binding peptides and detecting abeta peptide” (The Regents of the University of California, priority 2003, dated 2010).
